The values that follow come from patent publication US11007274B2, “Compounds for medicinal applications” (Ausvir Therapeutics Pty LTD, priority 2015, dated 2021).

The structures appear in SMILES notation. ≈ marks a conversion by molar mass, not a printed value. Where “and” joins values, the source holds several entries; their conditions need not be identical. Equal entries are not always repeated. Where two headings read alike, the source gives them in different places. Some results are limits rather than exact numbers.

Data set [1] is described as follows: in vitro.
The subject of data set [2] is Influenza A virus H3N2, Perth/16/2009. Nature of the data set: microbe, parasite or virus in culture. Format: cell-based. As to conditions: read-out: EC90.
In data set [3] the test system is Influenza B virus, B/Florida/4/2006. Nature of the data set: microbe, parasite or virus in culture. Format: cell-based.
Data set [4] relates to Influenza A virus H3N2, Perth/16/2009. Nature of the data set: microbe, parasite or virus in culture. Format: cell-based.
Data set [5] deals with Influenza B virus, B/Florida/4/2006. The data set can be described thus: microbe, parasite or virus in culture. Format: cell-based. The conditions noted are these: Table 19, […], B/Florida/4/2006, read-out: EC50.
Data set [6] concerns Influenza A virus H1N1, California/07/2009. The data set can be described thus: microbe, parasite or virus in culture. Format: cell-based. As to conditions: read-out: EC90.
Data set [7] relates to Influenza A virus H5N1, Duck/MN/1525/81. The data set can be described thus: microbe, parasite or virus in culture. Format: cell-based.
The test system of data set [8] is Influenza A virus H1N1, California/07/2009. Nature of the data set: microbe, parasite or virus in culture. Format: cell-based.
Data set [9] relates to Florida/4/2006. Nature of the data set: microbe, parasite or virus in culture. Format: cell-based.
Data set [10] has as its system Perth/16/2009. Nature of the data set: microbe, parasite or virus in culture. Format: cell-based.
Data set [11] deals with Duck/MN/1525/81. Format: cell-based. The conditions noted are these: Table 7.
Data set [12] relates to CA/07/2009. Nature of the data set: microbe, parasite or virus in culture. Format: cell-based.
Data set [13] has as its system A/PR/8 virus H1N1. Nature of the data set: Viral Plaque Reduction Assay (Table 23). As to conditions: Table 23, plaque reduction, read-out: EC50. Format: cell-based, influenza virus. Background: Plaques are areas of infected cells; plaque reduction assays count them against a control.
For data set [14], the system named is A/Victoria/170/2012. Nature of the data set: microbe, parasite or virus in culture. Format: cell-based. As to conditions: unidentified influenza virus, read-out: EC50 A/Victoria/170/2012.
Data set [15] concerns A/Victoria/503/06. The data set can be described thus: microbe, parasite or virus in culture. Format: cell-based. As to conditions: unidentified influenza virus, read-out: EC50 A/Victoria/503/06.
Data set [16] has as its system A/Solomon Island/3/06. Nature of the data set: microbe, parasite or virus in culture. Format: cell-based. As to conditions: unidentified influenza virus, read-out: EC50 A/Solomon Island/3/06.
Data set [17] concerns A/Townsville/74/2011. Nature of the data set: microbe, parasite or virus in culture. Format: cell-based. The conditions noted are these: unidentified influenza virus, read-out: EC50 A/Townsville/74/2011.
Data set [18] has as its system B/Townsville/2/2011. Nature of the data set: microbe, parasite or virus in culture. Format: cell-based. As to conditions: unidentified influenza virus, read-out: EC50 B/Townsville/2/2011.
Data set [19] deals with A/Sydney/5/97. The data set can be described thus: microbe, parasite or virus in culture. Format: cell-based. As to conditions: unidentified influenza virus, read-out: EC50 A/Sydney/5/97.
Data set [20] relates to A/Perth/261/2009. Nature of the data set: microbe, parasite or virus in culture. Format: cell-based. As to conditions: unidentified influenza virus, read-out: EC50 A/Perth/261/2009.
The subject of data set [21] is A/Mississippi/03/01H274Y. Format: cell-based, influenza virus.
Data set [22] relates to PR8 influenza virus. The data set can be described thus: Viral clearance rates in the lung and nasal turbinates, weight loss (Table 6). Format: in vivo, mice.
In data set [23] the test system is CA/07/2009 virus H1N1. The data set can be described thus: Viral Plaque Reduction Assay (Table 22). Format: cell-based. The conditions noted are these: Influenza A virus, Table 22, plaque reduction, read-out: EC50.

On to `NC(=O)c1ncn([C@@H]2O[C@H](CO)[C@@H](O)[C@H]2O)n1` [Ribavirin, reference compound], for which the CC50 (usually the concentration giving 50% cytotoxicity) in data set [1] (CC50, Table 9, line Neutral Red (Cytopathic effect/Toxicity)) is greater than 1000 µg/mL; in [1] (CC50, Table 10, line Neutral Red (Cytopathic effect/Toxicity)), greater than 1000 µg/mL; in data set [1] (CC50, Table 11, line Neutral Red (Cytopathic effect/Toxicity)), greater than 320 µg/mL; in data set [1] (CC50, Table 12, line Neutral Red (Cytopathic effect/Toxicity)) it was greater than 320 µg/mL; in [1] (CC50, Table 13, line Neutral Red (Cytopathic effect/Toxicity)), greater than 320 µg/mL; in [1] (CC50, Table 14, line Neutral Red (Cytopathic effect/Toxicity)), greater than 320 µg/mL. In addition, the CC50 in data set [1] (CC50, Table 15, line Neutral Red (Cytopathic effect/Toxicity)) is greater than 320 µg/mL; in [1] (CC50, Table 16, line Neutral Red (Cytopathic effect/Toxicity)), greater than 320 µg/mL; in [1] (CC50, Table 18, line Neutral Red (Cytopathic effect/Toxicity)) it was greater than 320 µg/mL; in [1] (CC50, Table 19, Neutral Red (Cytopathic effect/Toxicity) rows), greater than 320 µg/mL. In addition, the results for the EC90 in data set [2], in data set [6] and in [7] were 4.4 µg/mL (≈ 18 µM), 2.3 µg/mL (≈ 9.42 µM) and 2.3 µg/mL (≈ 9.42 µM), respectively. Also, the EC50 in data set [3] turned out to be 9.5 µg/mL (≈ 38.9 µM); in data set [4], 5 µg/mL (≈ 20.5 µM); in data set [5], 10 µg/mL (≈ 40.9 µM); in data set [8] it was 2.5 µg/mL (≈ 10.2 µM).

Consider `CC(=O)N[C@H]1[C@H]([C@H](OC(=O)NCCCCCCNC(=O)c2cc(C(=O)NCCCCCCNC(=O)O[C@@H]([C@@H]3OC(C(=O)O)=C[C@H](N=C(N)N)[C@H]3NC(C)=O)[C@H](O)CO)c(C(=O)O)cc2C(=O)O)[C@H](O)CO)OC(C(=O)O)=C[C@@H]1N=C(N)N` [MD016, PK2 PYR(Z)2], for which, in data set [9], the EC50 was 7 nM and the “EC50 Florida/4/2006” value stood at 8.2 ng/mL (≈ 0.00703 µM). In addition, in data set [10], the EC50 came out at 2.8 nM and the “EC50 Perth/16/2009” value was 3.3 ng/mL (≈ 0.00283 µM). In data set [11], the EC50 stood at 0.51 nM. Also, in [12], the EC50 worked out at 7.7 nM and the “EC50 CA/07/2009” value stood at 9 ng/mL (≈ 0.00771 µM).

On to `CC(=O)N[C@H]1[C@H]([C@H](OC(=O)NCCCCCNC(=O)[C@@H]2C[C@H](C(=O)NCCCCCNC(=O)O[C@@H]([C@@H]3OC(C(=O)O)=C[C@H](N=C(N)N)[C@H]3NC(C)=O)[C@H](O)CO)C[C@H](C(=O)N[C@@H](CC(=O)O)C(=O)O)C2)[C@H](O)CO)OC(C(=O)O)=C[C@@H]1N=C(N)N` [MD242, CHTCA(Zp)2-L-Asp], for which the EC50 in [9] (Table 7) is 0.58 nM; in data set [10] (Table 7), 3.46 nM; in [11] it was 0.7 nM; in data set [12] (Table 7), 6.58 nM. Besides, the “EC50 Florida/4/2006” value in data set [9] (Table 7) was found to be 0.71 ng/mL (≈ 0.000584 µM). Further, the “EC50 Perth/16/2009” value in [10] (Table 7) was 4.2 ng/mL (≈ 0.00345 µM). Further, the “EC50 CA/07/2009” value in data set [12] (Table 7, MDCK cell line) worked out at 8 ng/mL (≈ 0.00658 µM).

Consider `CC(=O)N[C@H]1[C@H]([C@H](OC(=O)NCCCCCCCCNC(=O)CC(CC(=O)N[C@H](CS(=O)(=O)O)C(=O)N[C@H](CS(=O)(=O)O)C(=O)N[C@H](CS(=O)(=O)O)C(=O)O)C(=O)NCCCCCCCCNC(=O)O[C@@H]([C@@H]2OC(C(=O)O)=C[C@H](N=C(N)N)[C@H]2NC(C)=O)[C@H](O)CO)[C@H](O)CO)OC(C(=O)O)=C[C@@H]1N=C(N)N` (stereo partly drawn) [MD343, PK2 TCA(Z0)2-[D-Cya]3-OH], for which, in data set [13], the EC50 was 1.27 nM.

`CC(=O)N[C@H]1[C@H]([C@H](OC(=O)NCCCCCCNC(=O)c2cc(C(=O)O)c(C(=O)NCCCCCCNC(=O)O[C@@H]([C@@H]3OC(C(=O)O)=C[C@H](N=C(N)N)[C@H]3NC(C)=O)[C@H](O)CO)cc2C(=O)O)[C@H](O)CO)OC(C(=O)O)=C[C@@H]1N=C(N)N` [MD015, PK1 PYR(Z)2]: the EC50 in [9] (Table 7) is 2.1 nM; in [10] (Table 7), 6.7 nM; in data set [11], 0.34 nM; in data set [12] (Table 7), 6 nM. In data set [9] (Table 7), the “EC50 Florida/4/2006” value was found to be 2.5 ng/mL (≈ 0.00214 µM). Moreover, in [10] (Table 7), the “EC50 Perth/16/2009” value came out at 7.8 ng/mL (≈ 0.00668 µM). For the same compound, in [12] (Table 7, MDCK cell line), the “EC50 CA/07/2009” value came to 7 ng/mL (≈ 0.006 µM).

`CC(=O)N[C@H]1C([C@H](OC(=O)NCCCCCCCCCNC(=O)[C@@H]2CC(C(=O)NCCCCCCNC(=O)O[C@H](C(O)CO)C3OC(C(=O)O)=C[C@H](NC(=N)N)[C@H]3NC(C)=O)C[C@H](C(=O)N[C@H](CC(=O)NC(CS(=O)(=O)O)C(=O)O)C(=O)N[C@H](CC(=O)NC(CS(=O)(=O)O)C(=O)O)C(=O)N[C@H](CC(=O)NC(CS(=O)(=O)O)C(=O)O)C(=O)O)C2)C(O)CO)OC(C(=O)O)=C[C@@H]1NC(=N)N` (stereo partly drawn) [MD348, CHTCA(Z0)2-[D-Asp(D-Cyst)-D-Asp(D-Cyst)-D-Asp(D-Cyst)]-OH]: the EC50 in data set [14] stood at 0.83 nM; in data set [15], 4.5 nM; in data set [13] (Influenza A virus) it was 1.92 nM; in data set [16] it was 0.016 nM; in [17], 0.06 nM; in data set [18] it was 0.28 nM. Moreover, the EC50 in data set [19] came out at 1.26 nM; in data set [20], 0.35 nM; in [21], 0.27 nM.

In the case of `CC(=O)N[C@H]1[C@H]([C@H](OC(=O)NCCCCNC(=O)[C@@H]2C[C@H](C(=O)NCCCCNC(=O)O[C@@H]([C@@H]3OC(C(=O)O)=C[C@H](N=C(N)N)[C@H]3NC(C)=O)[C@H](O)CO)C[C@H](C(=O)N[C@@H](CC(=O)O)C(=O)O)C2)[C@H](O)CO)OC(C(=O)O)=C[C@@H]1N=C(N)N` [MD206, CHTCA(Zb)2-L-Asp], in data set [9] (Table 7), the “EC50 Florida/4/2006” value was greater than 10000 ng/mL. For the same compound, the EC50 was greater than 8400 nM in data set [9] (Table 7, cells of the nM column printed in μM); 6.1 nM in data set [10] (Table 7); 0.59 nM in data set [11]; 1.68 nM in [12] (Table 7). Besides, in [10] (Table 7), the “EC50 Perth/16/2009” value was 7.3 ng/mL (≈ 0.00614 µM). In addition, the “EC50 CA/07/2009” value in data set [12] (Table 7, MDCK cell line) turned out to be 2 ng/mL (≈ 0.00168 µM).

For `CC(=O)N[C@H]1[C@H]([C@H](OC(=O)NCCCCNC(=O)c2cc(C(=O)NCCCCNC(=O)O[C@@H]([C@@H]3OC(C(=O)O)=C[C@H](N=C(N)N)[C@H]3NC(C)=O)[C@H](O)CO)c(C(=O)N[C@H](CC(=O)NCS(=O)(=O)O)C(=O)NCS(=O)(=O)O)cc2C(=O)N[C@H](CC(=O)NCS(=O)(=O)O)C(=O)NCS(=O)(=O)O)[C@H](O)CO)OC(C(=O)O)=C[C@@H]1N=C(N)N` [MD219, PK2 PYR(Zb)2[(D-Asp)(NHCH2SO3H)2]2], in data set [9], the EC50 worked out at 0.99 nM and the “EC50 Florida/4/2006” value is 1.7 ng/mL (≈ 0.000992 µM). Also, in data set [10], the EC50 was greater than 5800 nM and the “EC50 Perth/16/2009” value is greater than 10000 ng/mL. Besides, in data set [11], the EC50 was found to be 0.29 nM. Besides, in data set [12], the EC50 worked out at 2.92 nM and the “EC50 CA/07/2009” value turned out to be 5 ng/mL (≈ 0.00292 µM).

As to `CC(=O)N[C@H]1[C@H]([C@H](O)[C@H](O)CO)OC(C(=O)O)=C[C@@H]1N=C(N)N` [Zanamivir, reference compound], the “lung viral titre, Group mean titres” value in [22] (Day 1) is reported as 2.60 log10; in data set [22] (Day 3) it was 4.28 log10; in [22] (Day 5), 4.85 log10; in data set [22] (Day 7), 4.72 log10. Further, the “weight loss compared with PBS” value in [22] (days 3, 4 and 5, Bonferroni post-test p<0.001) is recorded as “significantly different from PBS”. Also, the “lung viral titre, Individual titres” value in [22] (mouse, in vivo) is 4.44 log10 and 4.66 log10 and 4.97 log10 (2×) and 4.19 log10 and 3.16 log10 and 4.84 log10 and 3.00 log10 and 5.77 log10 and 5.66 log10. In addition, the EC50 was 10200 nM in [13] (Influenza A virus); greater than 66 nM in data set [21]; 0.00197 µg/mL and 5.93 nM in data set [23].
